# Calls of active or inactive are those of the source. The rule behind the calls is not given here.
# Target: Serine/threonine-protein phosphatase PP1-alpha catalytic subunit (Homo sapiens) (UniProt P62136)
# Experiment: inhibition of PP1 activity on phosphorylase substrate – biochemical, radiolabel, 32P-phosphorylase substrate, single concentration, PP1 inhibitor probe project, late-stage follow-up (AID 652110)
# Conditions: PP1 dephosphorylation of 32P-glycogen phosphorylase, at 50 µM, stronger effect = higher value
# Sequence of Serine/threonine-protein phosphatase PP1-alpha catalytic subunit (Homo sapiens) (P62136 whole entry, looked up): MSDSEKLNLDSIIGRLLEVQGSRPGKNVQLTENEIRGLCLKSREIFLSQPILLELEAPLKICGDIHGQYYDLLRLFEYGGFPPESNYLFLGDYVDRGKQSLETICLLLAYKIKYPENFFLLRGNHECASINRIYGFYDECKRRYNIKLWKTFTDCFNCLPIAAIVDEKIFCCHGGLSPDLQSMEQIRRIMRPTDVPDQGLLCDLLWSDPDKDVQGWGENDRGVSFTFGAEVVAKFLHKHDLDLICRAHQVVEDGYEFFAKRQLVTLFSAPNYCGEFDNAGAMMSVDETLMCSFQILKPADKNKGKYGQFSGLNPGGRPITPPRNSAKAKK
row,Structure (SMILES),inhibition
1,Cc1ccc(C(=O)NNc2cc(N3CCCC3)nc(N3CCCC3)n2)cc1,14.4% (inactive)
2,O=C1Nc2ccccc2N2CCCC12 (stereo not given),9.82% (inactive)
3,CCOC(=O)c1sc2nc3c(SCC(=O)O)cc(C(=O)c4cc(F)ccc4O)cn3c(=O)c2c1C,92.2%
4,Clc1ccc(-n2nnnc2-c2cnc(-c3ccccn3)nc2-c2cccs2)cc1,0.651% (inactive)
5,COc1cc(Br)c(C(=O)c2nccc3cc(OC)c(OC)cc23)cc1OC,9.5% (inactive)
6,Oc1ccccc1/C=N/Nc1cc(N2CCCC2)nc(N2CCCC2)n1,17.2% (inactive)
7,O=c1[nH]c(Nc2ccccc2)cc2ccccc12,19% (inactive)
8,COc1ccc(CN2C(=O)Cc3c2nc(N)c2c(N)nc(N4CCCCC4)c(C#N)c32)cc1,45.7% (inactive)
9,COc1ccc(NC(=S)Nc2ccc3nsnc3c2)cc1,13.3% (inactive)
10,COc1ccccc1Sc1nc(-c2ccccn2)ncc1OC,-0.402% (inactive)
11,COc1cnc(-c2ccccn2)nc1Sc1ccccc1,0.752% (inactive)
12,O=C(O)c1cc(-c2ccc(Cl)cc2)n(-c2cccc(Cl)c2)n1,12% (inactive)
13,CCOC(=O)c1nn(-c2ccc(C)cc2)c(=O)c2c(N)scc12,12.3% (inactive)
14,COc1ccc(Cn2c(N)c(C(=O)NCc3ccco3)c3nc4ccccc4nc32)cc1OC,8.99% (inactive)
15,COc1ccc2c(Cl)c(C(=O)N/N=C/c3ccc4c(c3)OCO4)sc2c1,33.4% (inactive)
16,O=C(NC1(O)C(=O)c2ccccc2C1=O)c1c(Cl)cccc1Cl,33.1% (inactive)
17,CCOc1ccc(NC(=S)Nc2ccc3nsnc3c2)cc1,9.35% (inactive)
18,c1ccc(Nc2nc(-c3ccccn3)cs2)cc1,13.2% (inactive)
19,CCOC(=O)c1cnc(-n2nc(C)cc2C)nc1NCCc1ccccc1,16.9% (inactive)
20,CCCCn1c(NC(=O)c2ccco2)c(C(=O)OCC)c2nc3ccccc3nc21,29.8% (inactive)
21,CCCN(CC1CC1)c1nc(N)c2c(N)nc(OC)cc2c1C#N,8.48% (inactive)
22,O=C(O)c1cc(-c2ccc(Cl)c(Cl)c2)n(-c2ccc(F)cc2)n1,8.75% (inactive)

row,Structure (SMILES),inhibition
1,c1ccc(-c2nccc(-c3ccc(-n4cnc5ccccc54)cc3)n2)nc1,43% (inactive)
2,COc1ccc(OCCCC(=O)Nc2nc(-c3ccccn3)cs2)cc1,19.4% (inactive)
3,CC(C)(CS(=O)(=O)[O-])NC(=O)CC[N+](C)(C)CCO,3.71% (inactive)
4,O=S(=O)(Cc1cc(NCc2ccccc2)nc(-c2ccccn2)n1)c1ccccc1,11.7% (inactive)
5,COc1ccc(Cl)cc1C(=O)Nc1cccc(-c2ccc3nncn3n2)c1,61.7% (inactive)
6,COc1ccc(Sc2nc(-c3ccccn3)ncc2OC)cc1,-0.0224% (inactive)
7,CCn1c2ccccc2c2cc(NC(=O)COC(=O)c3ccc(NC(=O)CC#N)cc3)ccc21,74.6%
8,Cc1ccc(C(=O)NC2(O)C(=O)c3ccccc3C2=O)cc1C,29.6% (inactive)
9,Cc1[nH]n(-c2ccccc2)c(=O)c1C(c1ccc([N+](=O)[O-])cc1)c1c(C)[nH]n(-c2ccccc2)c1=O,48.3% (inactive)
10,Oc1ccc(/C=N/Nc2cc(N3CCOCC3)nc(N3CCOCC3)n2)c(O)c1,20.3% (inactive)
11,Oc1cccc(/C=N/Nc2cc(N3CCCC3)nc(N3CCCC3)n2)c1,20.3% (inactive)
12,CCOC(=O)C1=C(C)OC2(O)c3ccccc3C(=O)C12O (stereo not given),17.4% (inactive)
13,Cc1cc(C)c(S(=O)(=O)/N=C2\C=C(Sc3ncn[nH]3)C(=O)c3ccccc32)cc1C,30.5% (inactive)
14,CCOC(=O)c1cnc(-n2cc(C)cn2)nc1NCc1ccc2c(c1)OCO2,21.6% (inactive)
15,N#Cc1c(-c2ccc(Cl)cc2)cc(-c2cccs2)nc1SCC(=O)O,81.6%
16,Nc1cc2nsnc2cc1Br,27.9% (inactive)
17,O=C(NC1(O)C(=O)c2ccccc2C1=O)c1ccccc1,30.4% (inactive)
18,COc1cnc(-c2ccccn2)nc1Oc1cccc(C(F)(F)F)c1,0.507% (inactive)
19,Nc1nc(-c2ccccn2)nc(N)c1Cc1ccc(Cl)cc1Cl,22.1% (inactive)
20,COc1cnc(-c2ccccn2)nc1Sc1cccc(Cl)c1,23% (inactive)
21,O=C(O)C1C2CCC(O2)C1C(=O)NC1CCCCC1 (stereo not given),66.1% (inactive)
22,CN1CCN(C(c2ccccn2)c2cc(Cl)c3cccnc3c2O)CC1 (stereo not given),97%

row,Structure (SMILES),inhibition
1,COc1cnc(-c2ccccn2)nc1Sc1ccc(F)cc1,3.69% (inactive)
2,O=C(O)c1cc(-c2ccc(Cl)c(Cl)c2)n(-c2ccccc2)n1,12.2% (inactive)
3,O=C1CCCC2=C1C1(O)C(=O)c3ccccc3C1(O)O2 (stereo not given),19.8% (inactive)
4,COc1cnc(-c2ccccn2)nc1Sc1ccccc1Cl,9.17% (inactive)
5,Cc1ccc(-n2nc(C(=O)O)cc2-c2ccc(Cl)cc2)cc1,5.4% (inactive)
6,CCOC(=O)c1cnc(-n2nc(C)cc2C)nc1NC1CCCCC1,16.3% (inactive)
7,Cc1nnc(NC(=O)C2C3C=CC(O3)C2C(=O)O)s1 (stereo not given),56.1% (inactive)
8,COc1cnc(-c2ccccn2)nc1Sc1ccc(Cl)cc1,12.2% (inactive)
9,O=C(O)c1n[nH]nc1-c1ccccc1,22.4% (inactive)
10,O=C(NC1(O)C(=O)c2ccccc2C1=O)c1ccc(C(F)(F)F)cc1,39.2% (inactive)
11,CCOC(=O)c1sc(N2C(=O)C(O)=C(C(=O)c3ccco3)C2c2cccc([N+](=O)[O-])c2)nc1C (stereo not given),51.3% (inactive)
12,COc1ccc(NC(=O)C2C3CCC(O3)C2C(=O)O)c(OC)c1 (stereo not given),73.9%
13,CCCCN(CC)c1nc(N)c2c(N)nc(OCC)cc2c1C#N,17.2% (inactive)
14,N#Cc1c(N2CCCC(O)C2)nc(N)c2c(N)nc3c(c12)CC(=O)N3C12CC3CC(CC(C3)C1)C2 (stereo not given),24.2% (inactive)
15,CCOC(=O)c1cnc(-n2nc(C)cc2C)nc1NC(C)c1ccccc1 (stereo not given),15.8% (inactive)
16,COc1ccc(C(=O)c2nccc3cc(OC)c(OC)cc23)cc1OC,9.58% (inactive)
17,COc1cnc(-c2ccccn2)nc1Oc1cccc(Cl)c1,3.5% (inactive)
18,CC(=O)C(C(C)=O)C1(O)C(=O)c2ccccc2C1=O,24.6% (inactive)
19,COc1cnc(-c2ccccn2)nc1Sc1ccc(C)cc1,9.79% (inactive)
20,O=C(Nc1nc(-c2ccccn2)cs1)C1CC(=O)N(c2ccc3c(c2)OCCO3)C1 (stereo not given),19.7% (inactive)
21,CCOC(=O)c1cnc(-n2nc(C)cc2C)nc1NCc1ccccc1,7.11% (inactive)

# Reference: PubChem BioAssay AID652110 (The Scripps Research Institute Molecular Screening Center, 2013)
